Paper PMC11600199 (JACS Au, 2024)
≈ marks a conversion by molar mass, not a printed value.

What was measured:
[1] = Kinetic solubility in phosphate-buffered saline pH 7.4; conditions: 25 °C, pH 7.4, aqueous buffer, kinetic from dmso stock
Experimental pKa = format: physicochemical; conditions: amine hydrochlorides
[2] = human liver microsomes
[3] = Chemical stability in aqueous 1 M HCl or 1 M NaOH and on shelf storage; format: physicochemical; conditions: aqueous 1 M hydrochloric acid or aqueous 1 M sodium hydroxide, room temperature, 1 day

Structure (SMILES)	solubility kinetic at 2 h [1] [µM]	CLint [2] [mg min^–1 μL^–1]	further results
CC(C)(C)C(=O)NNCc1ccccc1 [Pivhydrazine]	≥ 400		
CC(C)(C)N.Cl [tert-butyl amine hydrochloride]			pKa (exp.) (Experimental pKa): 10.69
CN(Cc1ccc(C(C)(C)C)cc1)Cc1cccc2ccccc12 [Butenafine]	10 (≈ 3.17 µg/mL)	30	
CC(C)N(Cc1ccccc1)C(=O)C(C)(C)C [Tebutam]	324 (≈ 75.6 µg/mL)	57	
CCc1cc(C)cc(CC)c1-c1c(OC(=O)C(C)(C)C)n2n(c1=O)CCOCC2 [Pinoxaden]	358 (≈ 143 µg/mL)		
FC(F)(F)C1(c2cccnc2)CCC1 [12a]			decomposition on treatment with acid or base [3]: did not lead to any decomposition
